Data on eleven compounds can be found in patent US5602110A, “Method and composition for treating cystic fibrosis” (Case Western Reserve University, priority 1995, dated 1997).

The subject of test [1] is CF nasal polyp epithelial cells homozygous for the ΔF508 mutation. Nature of the test: 36Cl chloride efflux assay in primary CF nasal polyp epithelial cells. To be noted: for chloride efflux rate increase (chloride transport) in the CF cells: primary CF nasal polyp cells, isoproterenol 10 μM, milrinone 100 μM or IBMX 100 μM as labelled. The class given is cell-based, human. How it is done:
A test was run to confirm that the chloride efflux in primary CF cells (as opposed to CF-T43 cells used above) is mediated by the cAMP-dependent, protein kinase A pathway and not by calcium-dependent chloride channels. Efflux assays were carried out on primary CF cells, being CF nasal polyp epithelial cells homozygous for the ΔF508 mutation. Any significant contribution of calcium-activated chloride channels was ruled out by incubating the cells in BAPTA-AM, and comparing the response induced by ionomycin to that of albuterol combined with milrinone.
Transformed cell lines often have altered properties relative to the tissues from which they were derived. To determine if the responses seen in the transformed CF-T43 cells were representative of primary tissue cells, primary epithelial cells from CF nasal polyps were assayed for chloride efflux. Tissues were obtained from nasal polypectomies of CF patients and epithelial cells were isolated by digesting cells from basement membrane by collagenase followed by low speed centrifugations. After counting viable cells, cells were plated and assayed in the same way as the CF-T43 cells. A total of 5 such experiments were performed with polyp cells from different, unrelated patients.
The effects of these compounds on chloride permeability were measured as the rate of ^36 Cl efflux after stimulation divided by the basal rate, given as rstim /rbas. […] Both CF types are homozygous for the ΔF508 mutation.

Test [2] concerns ΔF508 CFTR in Xenopus laevis oocytes. Particulars: high concentrations of IBMX with relatively low concentrations of forskolin; cited from earlier work.
The subject of test [3] is Calu-3 and 16HBE airway epithelial cells expressing normal CFTR. The test is described as follows: 36Cl chloride efflux assay in airway epithelial cell lines expressing normal CFTR. The class given is cell-based. Particulars: 100 μM each drug alone; Calu-3 and 16HBE cells. How it is done: The nomenclature for cyclic nucleotide phosphodiesterases, as follows, is taken from Beavo (1990).
(§1) Two independent cell lines, Calu-3 and 16HBE, both derived from airway epithelial cells and both expressing normal CFTR (Shen et al., 1994; Haws et al., 1994; Haws et al., 1992) were assayed for increased Cl transport either by a radioisotopic flux assay or electrophysiologically. Using the method of Venglarik et al. (1990), cells were incubated in a Ringer's solution containing ^36 Cl to allow uptake of isotope into the cells, and then washed to remove external isotopic chloride. Efflux was measured by replacing the incubation solution every 30 seconds and quantitating the amount of ^36 Cl secreted into it. After 6 changes of solution (3 minutes), either drugs or placebos were added to the media. […] Efflux was then measured an additional 12 media changes (6 minutes).

Test [4] relates to CF-T43 cells (ΔF508 CFTR). Nature of the test: 36Cl chloride efflux assay in CF-T43 cells. It is filed as cell-based. To be noted: for chloride efflux: agent(s) as labelled, no other drug, FIG. 1, FIG. 2; for effect of added agent on chloride efflux stimulated by isoproterenol and milrinone: added to milrinone and isoproterenol, FIG. 2; for chloride efflux rate increase (chloride transport) in the CF cells: CF-T43, isoproterenol 10 μM, milrinone 100 μM or IBMX 100 μM as labelled. How it is done: as §1
CF-T43 is an SV40 T-antigen transformed cell line derived from a CF nasal turbinate (Jetten, et al., 1989). These cells maintain many of the original epithelial characteristics, including defective cAMP-dependant chloride transport, and have been used as a model for CF airway cells, CF-T43 cells carry and express only the ΔF508 CFTR mutation. […] With reference to FIG. 1, the control efflux contains Hepes-buffered Ringer's solution (HBR) +0.2% dimethylsulfoxide (DMSO), which is the concentration of DMSO in which the drugs were dissolved. The arrow indicates when the drugs were added. Iso means isoproterenol; Mil means milrinone.

Test [5] deals with mutant CFTR in CF epithelial cells. Particulars: Grubb et al. 1992; cited from earlier work.
Test [6] concerns cellular cAMP in CF-T43 cells. Particulars: in combination with isoproterenol 10 μM.
In another test the test system is normal CFTR in 293 cells. To be noted: forskolin alone; normal type-transfected 293 cells.
The test system of the next test is 16HBE cells. The test is described as follows: Whole-cell voltage clamp. The class given is cell-based. Here is the method: Whole-cell voltage clamp was used to confirm that the chloride efflux was consistent with CFTR activation. 16HBE cells were exposed to varying concentrations of milrinone and the membrane potential clamped in increments of 10 mV from -150 mV to +50 mV. The resulting current was then plotted as a function of voltage. […] A linear current/voltage relationship is a characteristic of CFTR activation. If currents are carried by chloride there should be a reduction in current at any given voltage when chloride is replaced by an ion to which CFTR is impermeante, such as gluconate.

[7] abbreviates: 100 μM glibenclamide, CF-T43 cells.

The structures appear in SMILES notation.

Take `CNCCNS(=O)(=O)c1cccc2cnccc12` [H-8, N[-2-(methylamino)ethyl]-5-isoquinoline sulfonamide]: the “effect of preincubation on the isoproterenol/milrinone chloride efflux response” value in test [1] (CF nasal polyp cells preincubated in H-8) was “dramatically reduced”.

Turning to `CC(C)Cn1c(=O)n(C)c(=O)c2[nH]cnc21` [IBMX, 3-isobutyl-1-methylxanthine], in test [2], the “activation of ΔF508 CFTR” value is reported as “could be activated”. The “increase in chloride efflux rate” value in test [3] was “Only the inhibitors specific for type III phosphodiesterases produced detectable increases”. Moreover, in test [4] (CF-T43 cells), the chloride efflux entry is given as “not provide an increase in efflux rate”. The “activation of a chloride conductance” value in test [5] is “unable to activate a chloride conductance”.

As for `Nc1ncnc2c1ncn2[C@@H]1O[C@@H]2CO[P@@](O)(=S)O[C@H]2[C@H]1O` [Rp-cAMPS], the “effect of added agent on chloride efflux stimulated by isoproterenol and milrinone” value in test [4] (CF-T43 cells) is “abolished the increase in chloride efflux”.

Regarding `Nc1ncnc2c1ncn2[C@@H]1O[C@@H]2COP(O)(=S)O[C@H]2[C@H]1O` (stereo partly shown) [Sp-cAMPS, Sp-adenosine 3':5'-cyclic phosphorothioate], in test [4] (CF-T43 cells), the “effect of added agent on chloride efflux stimulated by isoproterenol and milrinone” value was “enhanced”; the chloride efflux entry is listed as “no effect on chloride efflux”.

With `Nc1cc(-c2ccncc2)c[nH]c1=O` [amrinone], the “increase in chloride efflux rate” value in test [3] is listed as “greatest increase in chloride efflux rate”. Further, the “increase in cellular cAMP over baseline” value in test [6] (15 minutes, CF-T43 cells) is reported as “same as milrinone”.

For `C=C[C@@]1(C)CC(=O)[C@]2(O)[C@@]3(C)[C@@H](O)CCC(C)(C)[C@@H]3[C@H](O)[C@H](OC(C)=O)[C@@]2(C)O1` [forskolin], the “activation of chloride efflux” value in the test with normal CFTR in 293 cells is listed as “sufficient to activate”.

For `COc1ccc(Cl)cc1C(=O)NCCc1ccc(S(=O)(=O)NC(=O)NC2CCCCC2)cc1` [glibenclamide], in test [4] (setting [7]), the “effect on efflux elicited by ionomycin” value is “little effect” and the “inhibition of β-adrenergic agonist/milrinone-stimulated efflux” value is reported as “completely inhibited”.

`C[C@H](CCC(=O)O)C[C@H](C)C[C@H](C)C(=O)/C=C(\O)[C@H](C)C[C@H](C)C/C=C/[C@@H](C)[C@@H](O)[C@@H](C)[C@@H](O)C[C@@H]1CC[C@@](C)([C@H]2CC[C@@](C)([C@@H](C)O)O2)O1` [ionomycin]: the “chloride efflux response in the presence of BAPTA-AM” value in test [1] (primary CF nasal polyp cells incubated in BAPTA-AM) was “eliminated”; in test [4] (CF-T43 cells, BAPTA-AM added), “eliminated”. Further, the “chloride efflux response relative to the isoproterenol/milrinone response” value in test [4] (CF-T43 cells) is reported as “greater than the isoproterenol/milrinone response”.

`CC(C)NCC(O)c1ccc(O)c(O)c1` (stereo not shown) [isoproterenol]: the “chloride efflux rate increase (chloride transport) in the CF cells” value in test [1] and in test [4] was “neither agent alone elicited a rate increase” each time. The chloride efflux result in test [4] (CF-T43 cells) is on record as “no effect on chloride efflux”.

For the compound `Cc1[nH]c(=O)c(C#N)cc1-c1ccncc1` [milrinone], the “chloride efflux rate increase (chloride transport) in the CF cells” value in test [1] and in test [4] was “neither agent alone elicited a rate increase” each time. The “increase in chloride efflux rate” value in test [3] is reported as “greatest increase in chloride efflux rate”. Further, the “reversal potential of current” value with 16HBE cells (all concentrations of milrinone) came to 0 mV. The “current when chloride was replaced by gluconate” value in the test on 16HBE cells (chloride replaced by gluconate) is on record as “reduction of current”. Besides, the “dose dependence of effect on whole-cell current” value in the test on 16HBE cells (varying concentrations) is reported as “dose-dependent”. In the test on 16HBE cells (varying concentrations of milrinone, clamp -150 mV to +50 mV), the current/voltage relationship entry is given as “linear”. The “cAMP increase compared with isoproterenol alone” value in test [6] was “not significantly above that of isoproterenol alone”.

For `COc1ccc(C2CNC(=O)C2)cc1OC1CCCC1` (stereo not shown) [rolipram], in test [3], the “increase in chloride efflux rate” value is recorded as “Only the inhibitors specific for type III phosphodiesterases produced detectable increases”.
